Assay results from US8987192B2, “Potent and selective mediators of cholesterol efflux” (The Regents of the University of California, priority 2006, dated 2015).
Entries after “also recorded” stand apart in the source; their conditions may differ.

What was measured:
ABCA1 [1] = test: Cholesterol efflux in the absence and presence of ABCA1 (mouse macrophages and HeLa cells transfected with ABCA1 cDNA); assay type: cell-based; conditions: 8 hours, saturating peptide >30-fold Km
Text: The large excess of polypeptide was provided to determine the extent (if any) of non-specific efflux, in the absence of ABCA1 induction.

J774 macrophages = test: Pretreatment of macrophages, then Apo A-I-mediated cholesterol efflux; assay type: cell-based, mouse; conditions: 4 hour pretreatment, vs serum-free medium alone; Apo A-I 10 μg/ml
Procedure: To determine whether conditioning of macrophages with the polypeptide of SEQ ID NO:4 upregulates cholesterol efflux to native apolipoproteins, J774 macrophages labeled with [^3H]cholesterol were induced for the ABCA1 response using a cAMP analog (24 h). This was followed by a 4 hour treatment (no cAMP) with serum-free medium alone or medium containing the polypeptide of SEQ ID NO:4. After 4 h with no cAMP, cholesterol efflux was initiated by adding fresh medium containing Apo A-I (10 μg/ml). Polypeptide of SEQ ID NO:4 pretreatment produced a 40% increase in Apo A-I-mediated cholesterol efflux from macrophages, compared to pretreatment with serum-free medium alone (see, FIG. 6).

[2] = tested on: Apolipoprotein E deficient (Apo E −/−) mice; test: Established atherosclerosis in Apo E -/- mice on high-fat diet (Example 18); assay type: in vivo, mouse; conditions: 10 mg/kg IP at 2-day intervals
Procedure: Male Apolipoprotein E deficient (Apo E −/−) mice (six-weeks of age) were fed a high-fat diet for 26 weeks. During the last 6 weeks on the high-fat diet, the mice received intraperitoneal (IP) injections of either saline or the polypeptide of SEQ ID NO:4 (10 mg/kg) at 2-day intervals. […] The effect of the polypeptide reducing established atherosclerosis was highly significant, as judged by the lipid-content of plaques in the aortic sinus (see, FIG. 18). This was accomplished using the lipid-free polypeptide of SEQ ID NO:4 composed of all L-amino acids administered in the continued presence of the dietary insult.

ABCA1 [3] = biological target: T1, ABCA1 (Mus musculus, UniProt P41233); test: ABCA1 protein stabilization in J774 macrophages (Western blot); assay type: cell-based; set-up: endogenous in cells; host or cells: J774 mouse macrophages; conditions: 6 hours serum-free medium, no cAMP
Procedure: In some embodiments, the stabilization of ABCA is measured by direct measurement of ABCA (e.g., ABCA protein, or nucleic acid) using a cell based assay. Cell based assays can be performed in any cells in which ABCA is expressed (e.g., J774 macrophages), including cells which have been transfected with ABCA (e.g. HeLa cells). Any cell type can be used. For example, J774 macrophages can be used to assess relative ABCA1 protein levels in the presence and absence of polypeptides of the invention. The cells are first contacted with a compound that will induce ABCA (e.g., cAMP or a cAMP analogue such as, 8-bromo-cAMP) to upregulate ABCA (e.g., ABCA1) expression, then exposed to […] polypeptides of the invention in the absence of the cAMP stimulus to evaluate whether ABCA1 protein was stabilized or degraded. Relative levels of ABCA1 protein can be assessed using any means known in the art including, e.g., immunoblot analysis of cell membranes (Oram et al., J. Biol. Chem., 278:52379-52385 (2003)) or hybridization of nucleic acid probes to ABCA mRNA.
To test whether the polypeptides of the present invention stabilize cellular ABCA1 protein concentrations, J774 mouse macrophages were treated with a cAMP analogue (24 h) to upregulate ABCA1 expression. […] ABCA1 protein in cell lysates was determined by Western blot analysis. […]

ABCA1 [4] = biological target: T1, ABCA1; test: Cholesterol efflux from [3H]cholesterol-labeled ABCA1-expressing J774 mouse macrophages; assay type: cell-based; set-up: to upregulate cellular ABCA1 protein; endogenous in cells; host or cells: J774 mouse macrophages

T1 sequence (P41233 whole entry): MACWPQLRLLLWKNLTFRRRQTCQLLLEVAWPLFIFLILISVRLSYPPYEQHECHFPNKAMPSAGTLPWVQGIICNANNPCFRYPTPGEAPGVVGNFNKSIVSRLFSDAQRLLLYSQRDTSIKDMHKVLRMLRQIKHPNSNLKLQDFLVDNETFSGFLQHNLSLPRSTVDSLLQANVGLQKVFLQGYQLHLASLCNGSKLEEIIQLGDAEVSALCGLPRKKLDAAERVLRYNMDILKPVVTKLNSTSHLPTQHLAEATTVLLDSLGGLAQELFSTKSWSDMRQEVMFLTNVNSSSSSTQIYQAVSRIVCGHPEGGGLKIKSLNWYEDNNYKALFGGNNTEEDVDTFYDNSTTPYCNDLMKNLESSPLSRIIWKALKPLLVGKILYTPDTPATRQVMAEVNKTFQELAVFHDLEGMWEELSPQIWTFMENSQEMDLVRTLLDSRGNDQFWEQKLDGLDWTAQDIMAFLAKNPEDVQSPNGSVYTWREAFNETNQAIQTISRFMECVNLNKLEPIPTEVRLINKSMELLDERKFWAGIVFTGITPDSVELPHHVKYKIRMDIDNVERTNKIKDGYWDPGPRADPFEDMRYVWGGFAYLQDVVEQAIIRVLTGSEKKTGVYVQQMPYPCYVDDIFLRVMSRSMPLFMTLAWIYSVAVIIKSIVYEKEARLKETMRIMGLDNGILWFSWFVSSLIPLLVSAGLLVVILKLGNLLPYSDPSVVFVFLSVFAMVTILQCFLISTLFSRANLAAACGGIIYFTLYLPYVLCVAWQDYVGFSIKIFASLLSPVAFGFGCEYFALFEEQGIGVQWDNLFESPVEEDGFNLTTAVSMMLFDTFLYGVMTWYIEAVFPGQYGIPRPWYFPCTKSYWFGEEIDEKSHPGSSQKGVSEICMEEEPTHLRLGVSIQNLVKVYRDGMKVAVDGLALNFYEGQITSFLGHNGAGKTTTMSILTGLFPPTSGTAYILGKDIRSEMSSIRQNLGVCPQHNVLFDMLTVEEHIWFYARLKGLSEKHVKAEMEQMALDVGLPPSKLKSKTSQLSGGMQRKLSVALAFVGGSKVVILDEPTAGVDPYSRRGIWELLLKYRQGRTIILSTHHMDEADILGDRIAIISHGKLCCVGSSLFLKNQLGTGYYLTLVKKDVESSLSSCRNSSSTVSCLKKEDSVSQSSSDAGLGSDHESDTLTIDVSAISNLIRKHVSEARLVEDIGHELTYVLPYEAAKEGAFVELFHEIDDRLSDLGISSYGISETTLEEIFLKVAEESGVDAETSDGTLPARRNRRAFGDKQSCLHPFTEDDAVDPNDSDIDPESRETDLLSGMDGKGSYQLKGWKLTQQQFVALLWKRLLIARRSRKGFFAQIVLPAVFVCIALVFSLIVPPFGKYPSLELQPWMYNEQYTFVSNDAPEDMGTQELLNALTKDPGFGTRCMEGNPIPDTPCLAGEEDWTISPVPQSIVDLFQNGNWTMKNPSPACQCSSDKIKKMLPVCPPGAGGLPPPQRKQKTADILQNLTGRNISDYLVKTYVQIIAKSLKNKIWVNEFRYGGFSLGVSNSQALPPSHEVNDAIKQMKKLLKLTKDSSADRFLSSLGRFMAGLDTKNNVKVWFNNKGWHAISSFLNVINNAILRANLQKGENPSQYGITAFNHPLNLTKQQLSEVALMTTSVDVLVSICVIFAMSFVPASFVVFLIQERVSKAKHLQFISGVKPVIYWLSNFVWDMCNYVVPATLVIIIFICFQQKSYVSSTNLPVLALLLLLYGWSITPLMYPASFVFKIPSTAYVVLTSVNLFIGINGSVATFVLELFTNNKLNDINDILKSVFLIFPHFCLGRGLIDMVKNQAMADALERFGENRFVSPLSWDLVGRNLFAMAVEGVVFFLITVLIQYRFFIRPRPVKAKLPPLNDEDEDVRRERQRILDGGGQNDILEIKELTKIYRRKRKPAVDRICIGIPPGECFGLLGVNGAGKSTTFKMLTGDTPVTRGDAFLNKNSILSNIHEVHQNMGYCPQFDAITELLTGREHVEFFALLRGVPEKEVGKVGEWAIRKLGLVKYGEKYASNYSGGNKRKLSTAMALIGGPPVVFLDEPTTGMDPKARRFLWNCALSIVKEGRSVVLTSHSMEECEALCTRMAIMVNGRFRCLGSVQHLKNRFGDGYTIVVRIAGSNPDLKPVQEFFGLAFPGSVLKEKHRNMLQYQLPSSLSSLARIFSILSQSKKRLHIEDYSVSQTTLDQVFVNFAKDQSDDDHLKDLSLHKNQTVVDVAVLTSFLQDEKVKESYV

Sequence: EVRSKLEEWFAAFREFAEEFLARLKS (ATI-5261 amphipathic alpha-helix polypeptide core sequence selectively binds HDL, high-affinity ligand for ATP-binding cassette transporter A1 (ABCA1), ABCA1-lipid cholesterol efflux, ABCA1-stablization, anti-oxidant and anti- inflammatory activity) [SEQ ID NO:4]
- non-specific efflux activity in the absence of ABCA1 (ABCA1 [1]): minimal
- requirement of ABCA1 for cholesterol efflux activity (ABCA1 [1]; mouse macrophages and ABCA1-transfected HeLa): required ABCA1 for efflux activity
- increase in Apo A-I-mediated cholesterol efflux after pretreatment (J774 macrophages): 40%
- effect on established atherosclerosis (in words) ([2]; 6 weeks): reduced aortic plaque lipid content; also recorded: significantly reduced established atherosclerosis
- greater atherosclerosis in saline control mice compared to treated mice ([2]; last 6 weeks of 26 weeks high-fat diet, lipid-content of aortic sinus plaques): 38%
- ABCA1 protein in cell lysates after cAMP withdrawal (ABCA1 [3]): prevented the disappearance of ABCA1 protein
- cholesterol efflux efficiency/potency on per molecule (molar) basis versus apolipoproteins (ABCA1 [4]; Km in molar units): molar potency similar to that of apolipoproteins; also recorded: activity similar to full-length Apo A-I, Apo E, and the C-terminal (CT) domain of Apo E
- cholesterol efflux at low mass concentrations (ABCA1 [4]; increasing concentrations based on mass): relatively high-levels of cholesterol efflux
- more potent than ApoA-I in stimulating cholesterol efflux (ABCA1 [4]; mass basis, over working concentration range): at least 300%
